# Measurements published in patent US20200131196A1 (Mount Tam Therapeutics, Inc., priority 2017, published 2020).
# Assays:
# [1] = tested on: CaOV3; test: OncoPanel cell proliferation assay, CaOV3; type: cell-based, human; conditions: for GI50: Caov-3, read-out: Cell Count GI50
# Method: (§1) Cells were grown in RPMI 1640, 10% FBS, 2 mM L-alanyl-L-glutamine, 1 mM Na pyruvate, or a special medium. Cells were seeded into 384-well plates and incubated in a humidified atmosphere of 5% CO2 at 37° C. Compounds were added the day following cell seeding. At the same time, a time zero untreated cell plate was generated. After a 3-day incubation period, cells were fixed and stained to allow fluorescence imaging of nuclei. Compounds (1 mM stock solutions) were serially diluted in half-log steps from the highest test concentration ([…]), and assayed over 10 concentrations with a maximum assay concentration of 0.1% DMSO. Automated fluorescence microscopy was carried out using a Molecular Devices ImageXpress Micro XL high-content imager, and images were collected with a 4× objective. 16-bit TIFF images were acquired and analyzed with MetaXpress 5.1.0.41 software.
# (§2) Cell proliferation was measured by the fluorescence intensity of an incorporated nuclear dye. The output is referred to as the relative cell count, where the measured nuclear intensity is transformed to percent of control (POC) using the following formula: […]
# (§3) Cellular response parameters were calculated using nonlinear regression to a sigmoidal single-site dose response model:
# (§4) EC50 is the test compound concentration at the curve inflection point or half the effective response (parameter C of the fitted curve solution). GI50 is the concentration needed to reduce the observed growth by half (midway between the curve maximum and the time zero value). “Cell Count Activity Area” is an estimate of the integrated area above the curve (Barretina, et al. The Cancer Cell Line Encyclopedia enables predictive modelling of anticancer drug sensitivity. Nature 483: 603-607). […] In rare instances, values <0 or >10 may be observed. […] Curve-fitting, calculations, and report generation was performed using a custom data reduction engine and MathIQ based software (AIM).
# [2] = tested on: SW579; test: OncoPanel cell proliferation assay, SW579; type: cell-based, human; conditions: for EC50: read-out: Cell Count EC50; for GI50: read-out: Cell Count GI50
# Method: as §1, §2, §3, §4
# [3] = tested on: RL95-2; test: OncoPanel cell proliferation assay, RL95-2; type: cell-based, human; conditions: for GI50: read-out: Cell Count GI50
# Method: as §1, §2, §3, §4
# [4] = tested on: PC-3; test: OncoPanel cell proliferation assay, PC-3; conditions: for EC50: PC-3, read-out: Cell Count EC50; for GI50: PC-3, read-out: Cell Count GI50; for Cell Count Activity Area: PC-3
# Method: (§5) Cells were seeded into 384-well plates and incubated in a humidified atmosphere of 5% CO2 at 37° C. Compounds were added the day following cell seeding. At the same time, a time zero untreated cell plate was generated. After a 3-day incubation period, cells were fixed and stained to allow fluorescence imaging of nuclei. Compounds (1 mM stock solutions) were serially diluted in half-log steps from the highest test concentration (1 micromol), and assayed over 10 concentrations with a maximum assay concentration of 0.1% DMSO. Automated fluorescence microscopy was carried out using a Molecular Devices ImageXpress Micro XL high-content imager, and images were collected with a 4× objective. 16-bit TIFF images were acquired and analyzed with MetaXpress 5.1.0.41 software.
# [5] = tested on: TF-1; test: OncoPanel cell proliferation assay, TF-1; type: cell-based, human; conditions: for GI50: read-out: Cell Count GI50; for IC50: read-out: Cell Count IC50
# Method: as §1, §2, §3, §4
# [6] = tested on: SK-UT-1; test: OncoPanel cell proliferation assay, SK-UT-1; conditions: for EC50: SK-UT-1, read-out: Cell Count EC50; for GI50: SK-UT-1, read-out: Cell Count GI50; for Cell Count Activity Area: SK-UT-1
# Method: as §5
# [7] = tested on: CHP-212; test: OncoPanel cell proliferation assay, CHP-212; conditions: for Cell Count Activity Area: CHP-212; for GI50: CHP-212, read-out: Cell Count GI50; for IC50: CHP-212, read-out: Cell Count IC50
# Method: as §5
# [8] = tested on: U-87 MG; test: OncoPanel cell proliferation assay, U-87 MG; type: cell-based, human; conditions: for GI50: read-out: Cell Count GI50
# Method: as §1, §2, §3, §4
# [9] = tested on: A431; test: OncoPanel cell proliferation assay, A431; type: cell-based, human; conditions: for GI50: A-431, read-out: Cell Count GI50; for IC50: A-431, read-out: Cell Count IC50
# Method: as §1, §2, §3, §4
# [10] = tested on: SK-MEL-28; test: OncoPanel cell proliferation assay, SK-MEL-28; type: cell-based, human; conditions: for GI50: read-out: Cell Count GI50; for IC50: read-out: Cell Count IC50
# Method: as §1, §2, §3, §4
# [11] = tested on: NCI-H510A; test: OncoPanel cell proliferation assay, NCI-H510A; type: cell-based, human; conditions: for EC50: read-out: Cell Count EC50; for GI50: read-out: Cell Count GI50
# Method: as §1, §2, §3, §4
# [12] = tested on: DMS114; test: OncoPanel cell proliferation assay, DMS114; type: cell-based, human; conditions: for EC50: DMS-114, read-out: Cell Count EC50; for GI50: DMS-114, read-out: Cell Count GI50
# Method: as §1, with “Cells” for “Cells were grown in RPMI 1640, 10% FBS, 2 mM L-alanyl-L-glutamine, 1 mM Na pyruvate, or a special medium. Cells”
# as §2, §3
# GI50 is the concentration needed to reduce the observed growth by half (midway between the curve maximum and the time zero value). […] In rare instances, values <0 or >10 may be observed. […] Curve-fitting, calculations, and report generation was performed using a custom data reduction engine and MathIQ based software (AIM).
# [13] = Homo sapiens, read-out: Cell Count IC50
# [14] = Homo sapiens, read-out: Cell Count EC50
smiles,measurement,setting,value
"CN[C@@H]1C[C@H]2O[C@@](C)([C@@H]1OC)n1c3ccccc3c3c4c(c5c6ccccc6n2c5c31)C(=O)NC4 [Staurosporine, reference compound]",Cell Count Activity Area,[1],5.31
same,GI50,[1]; Homo sapiens,0.273 nM
same,Cell Count Activity Area,[2],6.09
same,EC50,[2]; Homo sapiens,0.52 nM
same,GI50,[2]; Homo sapiens,0.506 nM
same,Cell Count Activity Area,[3],3.87
same,GI50,[3]; Homo sapiens,6.83 nM
same,EC50,[4]; Homo sapiens,0.903 nM
same,GI50,[4]; Homo sapiens,1.07 nM
same,Cell Count Activity Area,[4],4.67
same,Cell Count Activity Area,[5],3.31
same,GI50,[5]; Homo sapiens,10.9 nM
same,IC50,[5]; Homo sapiens,11.9 nM
same,EC50,[6]; Homo sapiens,21.8 nM
same,GI50,[6]; Homo sapiens,19.5 nM
same,Cell Count Activity Area,[6],3.46
same,Cell Count Activity Area,[7],4.80
same,GI50,[7]; Homo sapiens,2.59 nM
same,IC50,[7]; Homo sapiens,4.78 nM
same,Cell Count Activity Area,[8],3.25
same,GI50,[8]; Homo sapiens,0.836 nM
same,Cell Count Activity Area,[9],5.64
same,GI50,[9]; Homo sapiens,1.03 nM
same,IC50,[9]; Homo sapiens,1.19 nM
same,Cell Count Activity Area,[10],2.81
same,GI50,[10]; Homo sapiens,32.1 nM
same,IC50,[10]; Homo sapiens,64.3 nM
same,Cell Count Activity Area,[11],1.68
same,EC50,[11]; Homo sapiens,39.8 nM
same,GI50,[11]; Homo sapiens,56.5 nM
same,EC50,[12]; Homo sapiens,21 nM
same,GI50,[12]; Homo sapiens,3.35 nM
"CO[C@H]1C[C@@H]2CC[C@@H](C)[C@@](O)(O2)C(=O)C(=O)N2CCCC[C@H]2C(=O)O[C@H]([C@H](C)C[C@@H]2CC[C@@H](O)[C@H](OC)C2)CC(=O)[C@H](C)/C=C(\C)[C@@H](O)[C@@H](OC)C(=O)[C@H](C)C[C@H](C)/C=C/C=C/C=C/1C [Rapamycin, reference compound]",Cell Count Activity Area,[1],2.40
same,EC50,"[1]; Homo sapiens, Caov-3, read-out: Cell Count EC50",> 1000 nM
same,GI50,[1]; Homo sapiens,> 1000 nM
same,IC50,"[1]; Homo sapiens, Caov-3, read-out: Cell Count IC50",> 1000 nM
same,Cell Count Activity Area,[2],4.77
same,EC50,[2]; Homo sapiens,0.0136 nM
same,GI50,[2]; Homo sapiens,0.0539 nM
same,IC50,[2]; [13],> 1000 nM
same,Cell Count Activity Area,[3],4.24
same,EC50,[3]; [14],0.0705 nM
same,GI50,[3]; Homo sapiens,0.13 nM
same,IC50,[3]; [13],> 1000 nM
same,EC50,[4]; Homo sapiens,0.23 nM
same,GI50,[4]; Homo sapiens,2.63 nM
same,IC50,"[4]; Homo sapiens, PC-3, read-out: Cell Count IC50",> 1000 nM
same,Cell Count Activity Area,[4],3.57
same,Cell Count Activity Area,[5],1.52
same,EC50,[5]; [14],> 1000 nM
same,GI50,[5]; Homo sapiens,> 1000 nM
same,IC50,[5]; Homo sapiens,> 1000 nM
same,EC50,[6]; Homo sapiens,0.2 nM
same,GI50,[6]; Homo sapiens,> 1000 nM
same,IC50,"[6]; Homo sapiens, SK-UT-1, read-out: Cell Count IC50",> 1000 nM
same,Cell Count Activity Area,[6],3.23
same,Cell Count Activity Area,[7],4.13
same,EC50,"[7]; Homo sapiens, CHP-212, read-out: Cell Count EC50",0.0376 nM
same,GI50,[7]; Homo sapiens,0.0707 nM
same,IC50,[7]; Homo sapiens,> 1000 nM
same,Cell Count Activity Area,[8],3.79
same,EC50,[8]; [14],0.104 nM
same,GI50,[8]; Homo sapiens,0.384 nM
same,IC50,[8]; [13],> 1000 nM
same,Cell Count Activity Area,[9],0.28
same,EC50,"[9]; Homo sapiens, A-431, read-out: Cell Count EC50",> 1000 nM
same,GI50,[9]; Homo sapiens,> 1000 nM
same,IC50,[9]; Homo sapiens,> 1000 nM
same,Cell Count Activity Area,[10],2.50
same,EC50,[10]; [14],0.654 nM
same,GI50,[10]; Homo sapiens,98.7 nM
same,IC50,[10]; Homo sapiens,> 1000 nM
same,Cell Count Activity Area,[11],1.63
same,EC50,[11]; Homo sapiens,> 1000 nM
same,GI50,[11]; Homo sapiens,> 1000 nM
same,IC50,[11]; [13],> 1000 nM
same,Cell Count Activity Area,[12],4.14
same,EC50,[12]; Homo sapiens,0.0747 nM
same,GI50,[12]; Homo sapiens,0.0478 nM
same,IC50,"[12]; Homo sapiens, DMS-114, read-out: Cell Count IC50",> 1000 nM
